Results published in ChEMBL document CHEMBL5724696, “Autophagy assay results for EUbOPEN Chemogenomics Library” (2024).

Assays:
Assay type in all cases: functional, Homo sapiens
U2OS [1] = test: (§1) Here: values are normalized to the negative (DMSO; defined as 0% autophagy induction) and positive (250nM Torin1; mTOR inhibitor; defined as maximal inducer of autophagy = 100%) control compounds and represented as % of autophagy induction. […] The impact of autophagy induction on cells is complex and depends on the affected target. As such, the magnitude of a phenotype may not be equally mirrored in the %-value of autophagy induction and vice versa. The dynamics of the induction may indicate the mode of activation: e.g. activation via phosphorylation or a signaling cascade may occur fast, while activation via transcription factors may take considerably longer. […] Of note, treatment concentrations may be sub-optimal for specific compounds, leading to false negative annotations.; conditions: Culturing Media DMEM, 1 % Penicillin/Streptomycin, 10% Fetal bovin serum Add-On: No, Screening Media Control DMEM, Screening Media Samples DMEM
TERT-RPE1 = test: as §1; conditions: Culturing Media DMEM/F12 (1:1), 1 % Penicillin/Streptomycin, 10% Fetal bovin serum Add-On: No, Screening Media Control DMEM/F12 (1:1), Screening Media Samples DMEM/F12 (1:1)
U2OS [2] = test: as §1; conditions: Culturing Media DMEM, 1 % Penicillin/Streptomycin, 10% Fetal bovin serum Add-On: No, Screening Media Control DMEM, Screening Media Samples DMEM; remark: listed apart in the source
[3] = Compound Concentration 0.5 uM, Timepoint 12 hours
[4] = Compound Concentration 0.5 uM, Timepoint 24 hours
[5] = Compound Concentration 0.5 uM, Timepoint 36 hours
[6] = Compound Concentration 0.5 uM, Timepoint 60 hours
[7] = Compound Concentration 2 uM, Timepoint 12 hours
[8] = Compound Concentration 2 uM, Timepoint 24 hours
[9] = Compound Concentration 2 uM, Timepoint 36 hours
[10] = Compound Concentration 2 uM, Timepoint 60 hours
[11] = Compound Concentration 10 uM, Timepoint 12 hours
[12] = Compound Concentration 10 uM, Timepoint 24 hours
[13] = Compound Concentration 10 uM, Timepoint 36 hours
[14] = Compound Concentration 10 uM, Timepoint 60 hours

SMILES | autophagy induction (U2OS [1]; [3]) [%] | autophagy induction (U2OS [1]; [4]) [%] | autophagy induction (U2OS [1]; [5]) [%] | autophagy induction (U2OS [1]; [6]) [%] | autophagy induction (U2OS [1]; [7]) [%] | autophagy induction (U2OS [1]; [8]) [%] | autophagy induction (U2OS [1]; [9]) [%] | autophagy induction (U2OS [1]; [10]) [%] | autophagy induction (U2OS [1]; [11]) [%] | autophagy induction (U2OS [1]; [12]) [%] | autophagy induction (U2OS [1]; [13]) [%] | autophagy induction (U2OS [1]; [14]) [%] | autophagy induction (TERT-RPE1; [3]) [%] | autophagy induction (TERT-RPE1; [4]) [%] | autophagy induction (TERT-RPE1; [5]) [%] | autophagy induction (TERT-RPE1; [6]) [%] | autophagy induction (TERT-RPE1; [7]) [%] | autophagy induction (TERT-RPE1; [8]) [%] | autophagy induction (TERT-RPE1; [9]) [%] | autophagy induction (TERT-RPE1; [10]) [%] | other results
COc1ccc(C2(O)OC(=O)C(c3ccc4c(c3)OCO4)=C2Cc2cc(OC)c(OC)c(OC)c2)cc1 (configuration not stated) [PD-156707] | -0.3009 | 0.4369 | -0.07956 | -0.9865 | -2.496 | -1.926 | -0.6682 | -1.242 | -0.3825 | -1.441 | -0.8744 | -0.2319 | -7.977 | -6.312 | -1.3569 | 6.352 | -3.2518 | -7.638 | -7.617 | -7.701 | autophagy induction (TERT-RPE1; [11]): -8.81%; autophagy induction (TERT-RPE1; [12]): -9.172%; autophagy induction (TERT-RPE1; [13]): -8.276%; autophagy induction (TERT-RPE1; [14]): -11.0822%; autophagy induction (U2OS [2]; [3]): 2.427%; autophagy induction (U2OS [2]; [4]): 7.779%; autophagy induction (U2OS [2]; [5]): 2.534%; autophagy induction (U2OS [2]; [6]): -0.8382%; autophagy induction (U2OS [2]; [7]): -5.016%; autophagy induction (U2OS [2]; [8]): 3.24%; autophagy induction (U2OS [2]; [9]): -2.65%; autophagy induction (U2OS [2]; [10]): -6.1634%; autophagy induction (U2OS [2]; [11]): -12.4956%; autophagy induction (U2OS [2]; [12]): -10.1664%; autophagy induction (U2OS [2]; [13]): -12.3712%; autophagy induction (U2OS [2]; [14]): -18.4825%
C/C(=N\NC(=O)[C@@H]1C(=O)NC[C@H]1c1ccccc1)c1cccc(Br)c1 | -3.442 | 0.5164 | 1.385 | -0.9425 | -6.368 | -5.034 | -3.37 | -2.754 | -1.379 | -1.755 | -0.957 | -1.418 | 3.657 | -1.179 | -5.656 | -7.294 | -6.467 | -9.581 | -11.1295 | -14.064 | autophagy induction (TERT-RPE1; [11]): -5.576%; autophagy induction (TERT-RPE1; [12]): -6.043%; autophagy induction (TERT-RPE1; [13]): -7.363%; autophagy induction (TERT-RPE1; [14]): -9.435%; autophagy induction (U2OS [2]; [3]): 9.666%; autophagy induction (U2OS [2]; [4]): 0.07709%; autophagy induction (U2OS [2]; [5]): 4.021%; autophagy induction (U2OS [2]; [6]): -3.426%; autophagy induction (U2OS [2]; [7]): -4.579%; autophagy induction (U2OS [2]; [8]): -6.454%; autophagy induction (U2OS [2]; [9]): -2.749%; autophagy induction (U2OS [2]; [10]): -11.0743%; autophagy induction (U2OS [2]; [11]): -8.587%; autophagy induction (U2OS [2]; [12]): 1.184%; autophagy induction (U2OS [2]; [13]): -3.458%; autophagy induction (U2OS [2]; [14]): -5.559%
